The values that follow come from patent publication US9249147B2, “Tyrosine kinase inhibitors” (CHEMBRIDGE CORPORATION, priority 2008, dated 2016).

What is called IC50 is the concentration needed to halve the response being measured.

Each structure is given as a SMILES string. Entries after “also recorded” stand apart in the source; their conditions may differ.

One data set has as its system U937. Briefly: Cellular IC50, U937. In kind it is cell-based. The settings on record: Homo sapiens, U-937; Table 3A.
Data set [1] is described as follows: Liver microsome stability, Human LM-P1 / HLM. The class given is in vitro ADME. The settings on record: Table 3A, human liver microsomes; read-out: CL HLM. The source says:
Metabolic stability of compound (II) (labeled as CRL241 below) in vitro has been tested in a standard in vitro microsomal stability assay in human microsomes (Cerep Study 13170).
Background: Liver microsomes are vesicles of endoplasmic reticulum, rich in cytochrome P450 enzymes.

The next data set concerns SUDHL-1. Nature of the data set: Cellular IC50, SUDHL-1. The settings on record: Homo sapiens, SU-DHL-1; Table 3A. In kind it is cell-based. The source says: (§1) Cell proliferation inhibition assays were run for compound (II) with the five target NPM-ALK-dependent ALCL cell lines (Karpas 299, SuDHL-1, JB6, SupM2, UConn) and 12 unrelated cell lines (HEK293, CHO-K1, MCF7, HepG2, H292, H520, H1581, H596, H522, CHA-GO-K1, UMC-11, SK-MES1). […] The pronounced target cell-killing effect is also observed (molecular mechanisms to be determined).

A short description of data set [2]: Liver microsome stability, Mouse LM-P1 / MLM. In kind it is in vitro ADME. The settings on record: Table 3A, mouse liver microsomes; read-out: CL MLM.
Another data set addresses RET (Homo sapiens, UniProt P07949). Briefly: RET cell free kinase assay (Table 3A). In kind it is biochemical.
For another data set, the target named is ROS (Homo sapiens, UniProt P08922). Nature of the data set: ROS cell free kinase assay (Table 3A). In kind it is biochemical.
Another data set concerns Karpas299. Briefly: Cell proliferation inhibition, ALCL line Karpas299. In kind it is cell-based. The conditions noted are these: Homo sapiens, KARPAS-299; Table 3A; read-out: Cellular IC50 K-299.
Excerpt: The IL-3-dependent lymphoid cell line BaF3 or BaF3 rendered IL-3-independent by engineered expression of NPM-ALK were used in parallel to test each candidate inhibitor. Control wells contained DMSO solvent without test compound. Specific inhibition of ALK signaling is indicated in the assay by impairment of NPM-ALK-expressing BaF3 cell growth without alterations in the growth of parental BaF3. This colorimetric assay of cell proliferation and viability is based upon reduction of the yellow monotetrazolium salt XTT to a water-soluble orange formazan dye, a reaction catalyzed by mitochondrial dehydrogenases in living cells only (Cell Proliferation Kit II, Cat. #1 465 015, Roche Biochemicals). In addition to testing compounds for their ability to impair the growth of BaF3 cells engineered to express NPM-ALK, the NPM-ALK-positive human lymphoma cell line Karpas-299 (Deutsche Sammlung von Mikroorganismen and Zellkulturen GmbH (DSMZ) no. ACC 31), the human BCR-ABL-positive chronic myeloid leukemia cell line K562 (American Type Culture Collection (ATCC) no. CCL-243), and the human T-cell leukemia line Jurkat (DSMZ no. ACC 282) were tested in these assays.
Each compound stock in 100% DMSO was first diluted using 8% DMSO/culture medium to produce a working stock of 250 μM compound. This working stock was then used to perform serial 1:1 dilutions (i.e., 125 μM, 62.5 μM, 31.25 μM, 15.625 μM, 7.8125 μM, and 3.90625 μM) using DMSO-free culture medium. Twenty (20) μL of each of these dilutions was then added to the cells (2×10^4 cells in 80 μL culture medium per 96-well) to obtain the final test compound concentrations (i.e., 25 μM, 12.5 μM, 6.25 μM, 3.125 μM, 1.5625 μM, and 0.78125 μM).
as §1

The next data set concerns the target ALK (Homo sapiens, UniProt Q9UM73). Briefly: ALK kinase assay (Kinase-Glo / AlphaScreen, purified NPM-ALK).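 Also: recombinant baculovirus-expressed ALK kinase domain, activity read either as leftover ATP by Kinase-Glo luminescence or as poly(Glu-Tyr) phosphorylation by anti-phosphotyrosine AlphaScreen proximity signal.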 In kind it is biochemical. Also on record: fused to the complete intracytoplasmic portion of ALK containing the functional tyrosine kinase domain; 6xHis; made in house; host or cells: insect cells; the other entry of the earlier key: NPM1 (P06748, Nucleophosmin). The conditions noted are these: Table 3A; read-out: Cell Free IC50 ALK. For orientation: In Kinase-Glo more light means more ATP remaining.

The target of the next data set is TRKA (Homo sapiens, UniProt P04629). Briefly: TRKA kinase assay. The class given is biochemical. More on the design: 6×His- or GST-tagged kinase domain fragments of the corresponding RTKs expressed in baculovirus system; host or cells: baculovirus system. The settings on record: Table 3A; read-out: Cell Free IC50 TRKA.
For data set [3], the system named is A549 cells. Briefly: Prolonged inflammation (PMA induced MMP-1 or IL-8) in A549 cells. The class given is cell-based. The conditions noted are these: FIG. 17. The source says: Panel 3: All the above were done on the transcriptional level (i.e., MMP-1, IL-8, etc. expressions). For IL-8, this was verified on the translational (i.e., protein expression) level as well.

In a further data set the test system is ALCL cell lines. Nature of the data set: Proliferation of NPM-ALK-dependent ALCL / ALK+ T-cell lymphoma cell lines. The class given is cell-based. The conditions noted are these: FIGS. 5, 6.
Excerpt: as §1

Data set [4] relates to A549 cells. Nature of the data set: TNFα-induced acute inflammation in A549 cells. The class given is cell-based. The conditions noted are these: 100 nM Dex or 1 μM compound (VI).
The test system of the next data set is IL-8 in A549 cells. Briefly: PMA-induced IL-8 levels in A549 cells, with or without RU-486. In kind it is cell-based. The conditions noted are these: 4 hr treatments.
The test system of a further data set is FKBP51 (GR pathway). Nature of the data set: GR specific anti-inflammatory marker FKBP51 in A549 cells. In kind it is cell-based.
The test system of the next data set is PC12 cells. Nature of the data set: NGF-stimulated neurite outgrowth in PC12 cells. The class given is cell-based. The conditions noted are these: 100 nM compound, NGF 100 ng/ml, 6 days. As to the method:
In chronic pain states, neurons form outgrowths which sensitize them to pain. NGF-induced neurite outgrowth was used as an assay for TrkA-dependent chronic/neuropathic pain activity.
Methods: PC12 cells were grown in 2% FBS and treated with or without NGF (100 ng/ml) 30 min before adding of vehicle or TRKA compounds for 6 days, changing media on day 3. On day 6 cells were fixed and stained for SRB before photographed for neurite outgrowth.

Data set [5] has as its system MMP-1 in A549 cells. Nature of the data set: PMA induced MMP-1 production in A549 cells. The class given is cell-based. The settings on record: one hour treatment.
Data set [6] relates to MMP-1 in A549 cells. Briefly: Combination of Trk inhibitor and glucocorticoid on MMP-1 expression in A549 cells. In kind it is cell-based. The conditions noted are these: sub-optimal concentrations.
In another data set the test system is PC-12 cells. Nature of the data set: PC-12 cell cytotoxicity. The conditions noted are these: FIG. 13. In kind it is cell-based.

RET, sequence (P07949 29-1114): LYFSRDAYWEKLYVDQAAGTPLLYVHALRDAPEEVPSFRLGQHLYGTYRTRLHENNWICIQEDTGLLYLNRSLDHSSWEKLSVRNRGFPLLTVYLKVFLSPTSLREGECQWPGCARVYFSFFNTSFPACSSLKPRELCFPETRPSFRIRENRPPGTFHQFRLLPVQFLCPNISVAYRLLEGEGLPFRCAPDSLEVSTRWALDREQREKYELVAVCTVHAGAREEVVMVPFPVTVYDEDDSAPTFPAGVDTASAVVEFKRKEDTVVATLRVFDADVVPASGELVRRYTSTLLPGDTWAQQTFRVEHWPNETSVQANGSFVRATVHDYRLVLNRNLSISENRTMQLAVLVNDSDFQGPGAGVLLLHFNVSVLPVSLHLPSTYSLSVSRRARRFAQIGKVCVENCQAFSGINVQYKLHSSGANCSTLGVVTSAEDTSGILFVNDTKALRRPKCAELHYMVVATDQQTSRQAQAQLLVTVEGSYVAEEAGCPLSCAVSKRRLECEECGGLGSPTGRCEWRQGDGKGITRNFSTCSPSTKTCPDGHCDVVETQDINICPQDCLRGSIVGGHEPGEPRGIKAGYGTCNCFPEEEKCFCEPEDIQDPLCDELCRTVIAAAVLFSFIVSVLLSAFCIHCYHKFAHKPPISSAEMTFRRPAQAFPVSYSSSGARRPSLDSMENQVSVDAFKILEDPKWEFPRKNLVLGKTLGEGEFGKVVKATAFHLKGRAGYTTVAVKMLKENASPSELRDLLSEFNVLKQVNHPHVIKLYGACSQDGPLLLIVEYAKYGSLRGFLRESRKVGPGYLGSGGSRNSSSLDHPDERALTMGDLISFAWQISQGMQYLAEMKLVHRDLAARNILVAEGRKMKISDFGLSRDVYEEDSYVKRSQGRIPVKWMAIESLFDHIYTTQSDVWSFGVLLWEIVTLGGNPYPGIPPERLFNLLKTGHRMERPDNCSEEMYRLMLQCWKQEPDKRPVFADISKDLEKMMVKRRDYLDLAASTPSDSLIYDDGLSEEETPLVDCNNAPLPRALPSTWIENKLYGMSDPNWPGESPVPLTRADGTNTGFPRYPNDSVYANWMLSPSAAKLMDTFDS
ALK, sequence (Q9UM73 with tags, fused parts or gaps): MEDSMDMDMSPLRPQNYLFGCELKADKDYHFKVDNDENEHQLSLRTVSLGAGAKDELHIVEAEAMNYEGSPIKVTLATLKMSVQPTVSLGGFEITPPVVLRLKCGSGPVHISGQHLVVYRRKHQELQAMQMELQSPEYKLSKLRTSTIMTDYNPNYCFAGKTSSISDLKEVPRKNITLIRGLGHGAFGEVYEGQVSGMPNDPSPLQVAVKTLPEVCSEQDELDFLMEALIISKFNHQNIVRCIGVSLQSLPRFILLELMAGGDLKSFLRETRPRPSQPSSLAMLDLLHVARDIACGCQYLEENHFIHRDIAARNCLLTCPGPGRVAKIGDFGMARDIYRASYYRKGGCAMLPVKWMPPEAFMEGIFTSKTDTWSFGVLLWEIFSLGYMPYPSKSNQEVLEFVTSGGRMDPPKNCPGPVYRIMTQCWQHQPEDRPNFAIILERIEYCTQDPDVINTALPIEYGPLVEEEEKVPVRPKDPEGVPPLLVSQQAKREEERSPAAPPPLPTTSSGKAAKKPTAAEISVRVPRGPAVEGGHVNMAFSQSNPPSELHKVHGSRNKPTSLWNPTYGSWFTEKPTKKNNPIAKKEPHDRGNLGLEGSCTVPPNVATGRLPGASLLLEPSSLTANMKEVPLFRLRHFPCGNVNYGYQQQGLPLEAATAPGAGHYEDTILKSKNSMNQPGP
TRKA, sequence (P04629 510-781 limits assumed): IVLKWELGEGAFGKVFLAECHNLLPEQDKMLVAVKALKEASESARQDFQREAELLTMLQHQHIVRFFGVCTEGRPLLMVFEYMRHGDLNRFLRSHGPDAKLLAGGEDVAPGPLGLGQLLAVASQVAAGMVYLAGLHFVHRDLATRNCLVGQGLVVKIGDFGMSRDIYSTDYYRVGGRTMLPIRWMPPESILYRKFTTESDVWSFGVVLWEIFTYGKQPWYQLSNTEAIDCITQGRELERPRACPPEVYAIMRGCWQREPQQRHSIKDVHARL
ROS, sequence (P08922 28-2347): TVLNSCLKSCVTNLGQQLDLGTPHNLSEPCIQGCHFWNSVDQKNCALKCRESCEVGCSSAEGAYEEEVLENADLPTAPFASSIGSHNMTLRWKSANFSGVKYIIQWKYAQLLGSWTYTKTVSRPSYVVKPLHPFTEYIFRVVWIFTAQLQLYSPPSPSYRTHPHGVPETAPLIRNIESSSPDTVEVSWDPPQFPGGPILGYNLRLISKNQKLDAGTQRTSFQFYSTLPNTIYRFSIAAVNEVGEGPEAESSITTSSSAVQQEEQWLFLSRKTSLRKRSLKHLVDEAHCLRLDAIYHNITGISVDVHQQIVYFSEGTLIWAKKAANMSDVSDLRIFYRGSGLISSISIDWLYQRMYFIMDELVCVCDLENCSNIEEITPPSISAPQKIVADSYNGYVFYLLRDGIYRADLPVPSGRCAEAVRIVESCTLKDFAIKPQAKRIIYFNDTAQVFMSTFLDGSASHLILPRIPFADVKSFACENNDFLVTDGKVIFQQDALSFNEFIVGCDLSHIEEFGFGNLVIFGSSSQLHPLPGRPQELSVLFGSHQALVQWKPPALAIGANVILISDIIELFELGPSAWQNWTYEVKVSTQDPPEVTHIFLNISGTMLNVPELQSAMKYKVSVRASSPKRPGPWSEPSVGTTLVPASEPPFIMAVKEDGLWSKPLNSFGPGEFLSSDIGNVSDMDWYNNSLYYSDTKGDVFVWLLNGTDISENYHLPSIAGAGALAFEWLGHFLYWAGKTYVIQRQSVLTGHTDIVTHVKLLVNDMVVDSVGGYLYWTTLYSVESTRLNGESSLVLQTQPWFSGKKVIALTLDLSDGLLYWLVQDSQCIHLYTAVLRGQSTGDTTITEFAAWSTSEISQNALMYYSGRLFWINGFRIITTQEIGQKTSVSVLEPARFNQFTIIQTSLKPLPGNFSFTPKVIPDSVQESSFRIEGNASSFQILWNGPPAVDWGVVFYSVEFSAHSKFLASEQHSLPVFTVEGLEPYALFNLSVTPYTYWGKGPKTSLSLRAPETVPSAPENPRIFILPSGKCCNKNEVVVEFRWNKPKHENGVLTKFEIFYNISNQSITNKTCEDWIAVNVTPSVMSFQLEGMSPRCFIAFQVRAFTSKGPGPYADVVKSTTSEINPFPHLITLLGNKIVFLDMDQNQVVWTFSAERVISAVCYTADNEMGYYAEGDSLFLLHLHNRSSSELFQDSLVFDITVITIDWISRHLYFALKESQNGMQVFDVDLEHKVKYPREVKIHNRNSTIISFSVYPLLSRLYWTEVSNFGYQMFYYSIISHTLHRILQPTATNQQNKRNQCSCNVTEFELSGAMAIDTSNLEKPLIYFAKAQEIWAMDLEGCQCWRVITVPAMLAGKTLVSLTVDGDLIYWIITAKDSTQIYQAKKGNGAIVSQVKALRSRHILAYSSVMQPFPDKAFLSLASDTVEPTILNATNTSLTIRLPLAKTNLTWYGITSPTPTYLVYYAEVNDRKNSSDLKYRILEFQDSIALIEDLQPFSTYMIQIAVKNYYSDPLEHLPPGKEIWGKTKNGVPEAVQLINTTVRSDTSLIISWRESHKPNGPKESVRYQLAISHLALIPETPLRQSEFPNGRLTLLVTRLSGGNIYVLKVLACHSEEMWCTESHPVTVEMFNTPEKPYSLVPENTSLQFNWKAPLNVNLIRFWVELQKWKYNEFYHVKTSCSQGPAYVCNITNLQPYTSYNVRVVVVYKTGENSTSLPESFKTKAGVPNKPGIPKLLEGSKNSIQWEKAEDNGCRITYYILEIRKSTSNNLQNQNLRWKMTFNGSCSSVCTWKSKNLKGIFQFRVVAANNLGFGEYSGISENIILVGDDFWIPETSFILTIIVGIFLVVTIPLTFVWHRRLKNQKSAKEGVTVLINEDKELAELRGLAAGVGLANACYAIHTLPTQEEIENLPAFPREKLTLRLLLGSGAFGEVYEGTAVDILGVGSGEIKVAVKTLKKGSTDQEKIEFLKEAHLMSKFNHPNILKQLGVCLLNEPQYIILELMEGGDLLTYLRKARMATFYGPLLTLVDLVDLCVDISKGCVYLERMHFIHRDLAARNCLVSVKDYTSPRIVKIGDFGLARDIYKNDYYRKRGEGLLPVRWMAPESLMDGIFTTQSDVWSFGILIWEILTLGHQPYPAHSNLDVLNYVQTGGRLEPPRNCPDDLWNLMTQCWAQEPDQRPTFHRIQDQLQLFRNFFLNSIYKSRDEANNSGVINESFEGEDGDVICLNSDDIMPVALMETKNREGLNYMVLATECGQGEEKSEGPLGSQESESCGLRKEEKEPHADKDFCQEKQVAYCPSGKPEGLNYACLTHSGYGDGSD

Consider `C[C@@H](Cc1c(F)c(F)cc(F)c1F)Nc1cc[nH]c(=O)c1-c1nc2cc3c(cc2[nH]1)CN(CCN(C)C)C3=O`, for which the IC50 was more than 3000 nM in the data set with U937, 102 nM in the data set on SUDHL-1 and 4 nM against RET. Moreover, the CLint scaled in data set [1] is less than 5.8 mL/min/kg; in data set [2], 82.2 mL/min/kg.

For `C[C@@H](Cc1c(F)c(F)cc(F)c1F)Nc1cc[nH]c(=O)c1-c1nc2cc3c(cc2[nH]1)C(=O)N(C1CCN(C)CC1)C3`, the IC50 in the data set on U937 came to 1180 nM; in the data set with SUDHL-1 it was 93 nM; at ROS, 0.3 nM; against RET, 6 nM; with Karpas299, 99 nM; on ALK it was 10 nM. Also, the IC50 on TRKA came to 5 nM. The CLint scaled in data set [1] and in data set [2] was less than 5.8 mL/min/kg throughout.

`COC(=O)[C@@]1(O)C[C@H]2O[C@]1(C)n1c3ccccc3c3c4c(c5c6ccccc6n2c5c31)C(=O)NC4` [K252a, reference compound]: in the data set on A549 cells [3], the “Anti-inflammatory effect on prolonged inflammation (PMA induced MMP-1 or IL-8)” value is given as “demonstrated anti-inflammatory activity which was not reversible by GR antagonist”.

Regarding `C[C@@H](Cc1cccs1)Nc1cc[nH]c(=O)c1-c1nc2cc3c(cc2[nH]1)C(=O)N(CCCN1CCCC1)C3` [compound (V)], the “Inhibition of ALCL / ALK+ T-cell lymphoma cell line proliferation” value with ALCL cell lines was “potent and highly selective inhibitor of ALCL cell lines”.

Turning to `C[C@@H](Cc1cc(F)cc(F)c1F)Nc1cc[nH]c(=O)c1-c1nc2cc3c(cc2[nH]1)CN(CCN(C)C)C3=O` [compound (VI)], in the data set on A549 cells [4], the TNFα-induced acute inflammation result is on record as “partially reversible”. The “Effect of GR antagonist RU-486 on inhibition of PMA-induced IL-8 levels” value in the data set with IL-8 in A549 cells was “not affected or possibly were more potent”. Also, the “Activation of GR pathway (FKBP51 marker)” value with FKBP51 (GR pathway) is recorded as “did not active the GR pathway”. The “Anti-inflammatory effect on prolonged inflammation (PMA induced MMP-1 or IL-8)” value in the data set on A549 cells [3] is listed as “anti-inflammatory activity was observed; also recorded: demonstrated anti-inflammatory activity which was not reversible by GR antagonist”. In the data set on PC12 cells, the NGF-stimulated neurite outgrowth entry was “inhibited the neurite outgrowth”. Also, the “Concentration required for complete inhibition of PMA induced MMP-1 production” value with MMP-1 in A549 cells [5] is approximately 1 µM. For the same compound, in the data set with MMP-1 in A549 cells [6], the “Effect of combination with Dex on PMA-induced inflammation (MMP-1 expression)” value is “additive anti-inflammatory effects”. In the data set on PC-12 cells, the PC-12 cell cytotoxicity entry is given as “lack of PC-12 cell cytotoxicity”.
